Laboratory results: the supplement of paper PMC10307832

compound: CC(C)=CC[C@@H](O)C1=CC(=O)c2c(O)ccc(O)c2C1=O [Shikonin] + COc1cc2c(Oc3ccc(NC(=O)C4(C(=O)Nc5ccc(F)cc5)CC4)cc3F)ccnc2cc1OCCCN1CCOCC1 [Foretinib] (partner 0.25 µM); experiment: relative viability (nuclei count vs DMSO), 5 days (fraction); higher = more cells survive; details: first compound 0.01 µM
Method in brief: (§1)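 Lung cancer cell lines, seeded in 1536-well plates, were treated the following day by pin tool with a single drug or with five library-drug doses (not always all listed) in √10 steps on top of a fixed anchor-drug dose. Cells were fixed and nuclei stained in one step after 5 days, and nuclei were counted. Relative viability is the nuclei count for treated wells divided by that for vehicle wells, reported as medians of duplicate plates.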

Compared with NCI-H1793, RERF-LC-KJ is higher in relative viability: 0.783 for the first, 0.904 for the second.

Compared with EKVX, LC-2-ad is higher in relative viability: 0.751 for the first, 0.869 for the second.

First: NCI-H1944
Second: NCI-H1975
The relative viability of the first is lower: 0.94 for the first, 1 for the second.

Compared with ABC-1, NCI-H358 is lower in relative viability: 1.14 for the first, 0.651 for the second.

NCI-H727 showed a relative viability of 0.864.

same assay, conditions: first compound 0.1 µM

Compared with NCI-H1793, RERF-LC-KJ is higher in relative viability: 0.737 for the first, 0.961 for the second.

Compared with EKVX, LC-2-ad is higher in relative viability: 0.646 for the first, 0.989 for the second.

Compared with NCI-H1944, NCI-H1975 is lower in relative viability: 0.954 for the first, 0.921 for the second.

Going from ABC-1 to NCI-H358, the relative viability falls from 0.993 to 0.729.

Cell Line NCI-H727 has a relative viability of 0.837.

same assay, conditions: first compound 0.3162 µM

First: NCI-H1793
Second: RERF-LC-KJ
The relative viability of the first is lower: 0.792 for the first, 0.903 for the second.

Compared with EKVX, LC-2-ad is lower in relative viability: 1.05 for the first, 1.04 for the second.

First: NCI-H1944
Second: NCI-H1975
The relative viability of the first is higher: 0.989 for the first, 0.947 for the second.

Compared with ABC-1, NCI-H358 is lower in relative viability: 0.927 for the first, 0.707 for the second.

NCI-H727 showed a relative viability of 0.905.

same assay, conditions: first compound 1 µM

First: NCI-H1793
Second: RERF-LC-KJ
The relative viability of the first is lower: 0.59 for the first, 0.908 for the second.

Going from EKVX to LC-2-ad, the relative viability rises from 0.762 to 1.01.

Going from NCI-H1944 to NCI-H1975, the relative viability rises from 0.94 to 0.973.

Compared with ABC-1, NCI-H358 is lower in relative viability: 1.04 for the first, 0.604 for the second.

In the case of NCI-H727, the relative viability is reported as 0.883.

compound: CC(C)=CC[C@@H](O)C1=CC(=O)c2c(O)ccc(O)c2C1=O [Shikonin] + Cc1cc(Nc2cc(N3CCN(C)CC3)nc(Sc3ccc(NC(=O)C4CC4)cc3)n2)n[nH]1 [Tozasertib] (partner 0.1 µM); experiment: as above; details: first compound 0.01 µM
Method in brief: as §1

Going from NCI-H1793 to RERF-LC-KJ, the relative viability rises from 0.353 to 0.55.

First: EKVX
Second: LC-2-ad
The relative viability of the first is lower: 0.387 for the first, 0.486 for the second.

First: NCI-H1944
Second: NCI-H1975
The relative viability of the first is lower: 0.241 for the first, 0.865 for the second.

Going from ABC-1 to NCI-H358, the relative viability falls from 0.141 to 0.104.

NCI-H727 gave a relative viability of 1.64.

same assay, conditions: first compound 0.1 µM

Compared with NCI-H1793, RERF-LC-KJ is higher in relative viability: 0.322 for the first, 0.44 for the second.

First: EKVX
Second: LC-2-ad
The relative viability of the first is lower: 0.327 for the first, 0.392 for the second.

Going from NCI-H1944 to NCI-H1975, the relative viability rises from 0.22 to 0.83.

First: ABC-1
Second: NCI-H358
The relative viability of the first is higher: 0.196 for the first, 0.102 for the second.

Cell Line NCI-H727 has a relative viability of 0.672.

same assay, conditions: first compound 0.3162 µM

Going from NCI-H1793 to RERF-LC-KJ, the relative viability rises from 0.332 to 0.499.

First: EKVX
Second: LC-2-ad
The relative viability of the first is lower: 0.402 for the first, 0.485 for the second.

Going from NCI-H1944 to NCI-H1975, the relative viability rises from 0.29 to 0.764.

Going from ABC-1 to NCI-H358, the relative viability falls from 0.188 to 0.0979.

Cell Line NCI-H727 has a relative viability of 0.634.

same assay, conditions: first compound 1 µM

Going from NCI-H1793 to RERF-LC-KJ, the relative viability falls from 0.498 to 0.388.

Going from EKVX to LC-2-ad, the relative viability rises from 0.414 to 0.435.

Compared with NCI-H1944, NCI-H1975 is higher in relative viability: 0.257 for the first, 0.701 for the second.

First: ABC-1
Second: NCI-H358
The relative viability of the first is higher: 0.187 for the first, 0.0975 for the second.

For NCI-H727, the relative viability was 0.697.

compound: CC(C)=CC[C@@H](O)C1=CC(=O)c2c(O)ccc(O)c2C1=O [Shikonin] + NC(=O)Nc1cc(-c2cccc(F)c2)sc1C(=O)N[C@H]1CCCNC1 [AZD7762] (partner 0.2 µM); experiment: as above; details: first compound 0.01 µM
Method in brief: as §1

First: NCI-H1793
Second: RERF-LC-KJ
The relative viability of the first is lower: 0.555 for the first, 1.04 for the second.

In the case of EKVX, the relative viability is reported as 0.744.
